According to patent publication US9133484B2, “Transfection agent” (3-D MATRIX, LTD., priority 2008, dated 2015):

What was measured:
[1] = Cytotoxicity, MTT cell proliferation assay (Cell Titer 96 Aqueous One Solution); assay type: cell-based; conditions: human, U87MG malignant glioma cells
Method: Cytotoxicity was evaluated using cultured human cells for a peptide surfactant and two types of currently widely used cationic liposome-mediated gene transfer agents.
<Materials> • *Added Substances • 1. Peptide surfactant (sequence: Ac-AAAAAAK-NH2(SEQ ID NO: 17), Celtek) • 2. Lipofectamine 2000 (Invitrogen) • 3. siFECTOR (B-Bridge International, Inc.) • *Cells • Cultured human malignant glioma cells (U87MG, acquired from ATCC) • *MTT Assay Reagent (for cell proliferation assay) • Cell Titer 96 Aqueous One Solution Cell Proliferation Assay Kit (Promega)
The cells were seeded in a 96-well plate in accordance with the recommended ATCC protocol (cell density: 2×10^4/well) followed by incubating overnight. The medium was replaced with fresh medium and the substances were added (final concentrations: 0.0005, 0.001, 0.005, 0.01, 0.05, 0.1, 0.5, 1, 5, 10, 25, 50, 75, 100, 250 and 500 μg/ml). The cells were cultured for 24 hours. After culturing, Cell Titer 96 Aqueous One Solution was added (20 μl/well) followed by measuring optical absorbance at 495 nm with a plate reader 4 hours later to quantify the number of viable cells.

[2] = test system: cultured human malignant glioma cells (U87MG, T98G, U251MG); test: Time-based changes in amount of siRNA introduced into cells (RFU); assay type: cell-based; conditions: siRNA 50 nM, peptide surfactant 20 μg/ml (FIG. 2)
Method: Time-based changes in the amounts of siRNA introduced into cells by peptide surfactant were examined by microscopic observation of fluorescent-labeled siRNA.
(§1) <Materials> • *Peptide surfactant • Sequence: Ac-AAAAAAK-NH2 (SEQ ID NO: 17) (Celtek) • *Peptide surfactant concentrations: • 0, 0.5, 1.0, 5.0, 10.0, 20.0, 25.0 μg/ml • *siRNA • siRNA/MMP-2 (Santa Cruz) • siRNA fluorescent labeling reagent • Label IT Cy-3 Labeling Kit (Mirus) • *Cells • Three types of cultured human malignant glioma cells (U87MG, T98G, U251MG, acquired from ATCC)
siRNA/MMP-2 was labeled with Cy3 using the siRNA fluorescent labeling reagent in accordance with the Minis standard protocol. The labeled siRNA was then mixed with the peptide surfactant. siRNA to a final concentration of 50 nM and peptide surfactant to a final concentration of 20 μg/ml were administered to 1×10^5 cells seeded in a 24-well plate containing medium at 1 ml/well, followed by incubating for 0.5, 1, 2, 4, 8, 16 and 24 hours. After washing the wells with PBS, the cells were recovered and transferred to a 96-well plate where they were measured for optical absorbance.

[3] = test system: cultured human malignant glioma cells (U87MG, T98G, U251MG); test: Introduction of Cy3-labeled siRNA into cells, fluorescence microscopy; assay type: cell-based; conditions: siRNA 50 nM plus peptide surfactant 20 μg/ml, 8 hours, all three types of cells
Method: The introduction of siRNA into cells by peptide surfactant was confirmed by microscopic observation of fluorescent-labeled siRNA.
<Materials> • *Peptide surfactant • Sequence: Ac-AAAAAAK-NH2 (SEQ ID NO: 17) (Celtek) • *siRNA • siRNA/MMP-2 (Santa Cruz) • *siRNA fluorescent labeling reagent • Label IT Cy-3 Labeling Kit (Mirus) • *Cells • Three types of cultured human malignant glioma cells (U87MG, T98G, U251MG, each acquired from ATCC)
siRNA/MMP-2 was labeled with Cy3 using the siRNA fluorescent labeling reagent in accordance with the Mirus protocol. 5000 of the cells were seeded into a chambered slide glass in accordance with the ATCC protocol and incubated for overnight. After removing the medium, siRNA to a final concentration of 50 nM and peptide surfactant to a final concentration of 20 μg/ml were added to 1 ml of medium followed by culturing for 8 hours. In a control group, only siRNA was cultured at a final concentration of 50 nM in 1 ml of medium.

MMP-2 mRNA = test: RNA interference effect by RT-PCR (MMP-2 target, beta-actin internal standard); assay type: cell-based, human; conditions: siRNA 50 nM/peptide surfactant 20 μg/ml, 8 hours, U87MG, T98G, U251MG (FIGS. 4 to 6)
Method: siRNA introduced into cells by peptide surfactant was confirmed to have RNA interference ability by RT-PCR.
<Materials> • *Peptide surfactant • Sequence: Ac-AAAAAAK-NH2 (SEQ ID NO: 17) (Celtek) • *Cells • Three types of cultured human malignant glioma cells (U87MG, T98G, U251MG, acquired from ATCC)
1×10^5 cells were seeded into a 24-well plate and cultured overnight in accordance with the ATCC standard protocol. After removing the medium, the following solutions were added to the final concentrations indicated below followed by culturing for 8 hours under the same culturing conditions as previously described. • (1) Blank control (medium only) • (2) Random oligo siRNA (Dharmacon)/peptide surfactant 20 μg/ml • (3) siRNA 50 nM • (4) Peptide surfactant 20 μg/ml • (5) siRNA 50 nM/peptide surfactant 20 μg/ml
The siRNA was reverse-transcribed to cDNA using the Taqman Gene Expression Cell-to-Ct Kit (Applied Biosystems). Quantitative analysis was carried out using the Applied Biosystems 7500 Real-Time PCR System using MMP-2 for the target and beta-actin for the internal standard by Gene Expression Assay (Applied Biosystems).

[4] = test system: cultured human malignant glioma cells (U87MG, T98G, U251MG); test: Relationship between peptide surfactant concentration and siRNA introduction efficiency (RFU); assay type: cell-based
Method: The manner in which the efficiency of introduction of siRNA into cells is dependent on concentration of peptide surfactant was examined by microscopic observation of fluorescent-labeled siRNA.
as §1, with “Cruz) • *siRNA fluorescent labeling” for “Cruz) • siRNA fluorescent labeling”
siRNA/MMP-2 was labeled with Cy3 using the siRNA fluorescent labeling reagent in accordance with the Minis standard protocol. The labeled siRNA was then mixed with the peptide surfactant. siRNA to a final concentration of 50 nM and peptide surfactant to final concentrations of 0, 0.5, 1, 5, 10, 20 and 25 μg/ml were administered to 1×10^5 cells seeded in a 24-well plate containing medium at 1 ml/well, followed by culturing for 8 hours. After washing the wells with PBS, the cells were recovered and transferred to a 96-well plate where they were measured for optical absorbance.

Ac-AAAAAAK-NH2 [peptide surfactant, Ac-AAAAAAK-NH2]
CC50 at 24 h [1]: 286 µg/mL
relative fluorescence units (RFU), siRNA incorporated into cells ([2]; culturing for 1 to 8 hours): increased nearly proportionately
RFU levels ([2]; culturing for longer than 8 hours): essentially reached a plateau
Uptake of Cy3-labeled siRNA [3]: confirmed
Expression of MMP-2 mRNA (MMP-2 mRNA): significantly inhibited
RFU versus peptide surfactant concentration (introduction of siRNA into cells) ([4]; 0-25 μg/ml peptide surfactant, siRNA 50 nM, 8 hours, all three cell types (FIG. 3)): increases in RFU in proportion to increases in concentration
concentration at which dose-dependent increases in RFU weakened ([4]; Y98G cells, siRNA 50 nM, 8 hours): ≥ 10 µg/mL
introduction of siRNA into cells ([4]; peptide surfactant 20 μg/ml for 8 hours (with results of Example 3)): adequately and significantly result in introduction of siRNA into cells
